Measured values published in paper PMC7376718, “Flavonoids isolated from the South African weed Chromolaena odorata (Asteraceae) have pharmacological activity against uropathogens” (BMC Complementary Medicine and Therapies, 2020).
Converted amounts (≈) assume the structure as drawn. Like-named read-outs stand apart in the source and are kept apart here.

Columns and labels:
[1] = system: Aspergillus fumigatus from a chicken; assay: MIC, serial microdilution with INT; format: cell-based; details: Aspergillus fumigatus, read-out: Minimum inhibitory concentration
Description: (§1) The cultures used were Escherichia coli (American Type Culture Collection, ATCC 25922) labelled as 1, E. coli isolates (B1989/17 and B1962/17) labelled as 2 and 3 from equine urine, collected from the Department of Veterinary Tropical Diseases, Faculty of Veterinary Science, University of Pretoria, South Africa, Klebsiella pneumoniae isolate from commercial chicken eggs, Enterococcus faecalis (ATCC 29212), Pseudomonas aeruginosa (ATCC 27853), Staphylococcus aureus (ATCC 29213), Candida albicans from a Gouldian finch, Aspergillus fumigatus from a chicken and Cryptococcus neoformans from a cheetah. These microbial strains were maintained on MHA or SDA for bacteria and fungi respectively, while the isolates were maintained on blood agar.
(§2) Ten mg/mL of each fraction and 1 mg/mL of isolated compounds were prepared in 10% DMSO and tested against S. aureus, E. coli, K. pneumoniae, E. faecalis, P. aeruginosa, C. albicans, C. neoformans and A. fumigatus. Cultures were prepared by inoculating each microbial strain from prepared agar plates into sterilized MHB for bacterial and SDB for fungi in sterile McCartney bottles respectively. The inoculums were placed in an orbital shaker incubator. Bacterial strains were incubated at 37 °C for 18 h. Each bacterial culture was diluted in fresh MHB and the absorbance was measured at a wavelength of 560 nm using a microplate reader (Epoch Biotek). The readings were compared to a McFarland standard No. 1 correlating to approximately 3 × 10^8 cfu/mL). For fungi strains, cultures were incubated at 30 °C for 24 h (C. albicans), 72 h (C. neoformans) and 120 h (A. fumigatus) respectively. The resultant cells and spores were washed with sterile normal saline and absorbance was measured at a wavelength of 560 nm and turbidity was adjusted to a McFarland standard 1.This was further diluted in a 1:10 ratio in SDB to a turbidity of 5 × 10^5 cfu/mL. These diluted cultures (bacterial and fungi) were used for the screening following the serial microdilution method of Eloff.

[2] = system: E. coli (B1989/17) isolate from equine urine, E. coli (2); assay: MIC, serial microdilution with INT; format: cell-based; details: Escherichia coli, read-out: Minimum inhibitory concentration
Description: as §1, §2

[3] = system: Klebsiella pneumoniae isolate from commercial chicken eggs; assay: MIC, serial microdilution with INT; format: cell-based; details: Klebsiella pneumoniae, K. pneumoniae; read-out: Minimum inhibitory concentration
Description: as §1, §2

[4] = system: S. aureus (ATCC 29213) biofilm; assay: Biofilm inhibition, crystal violet staining; format: cell-based, Staphylococcus aureus; details: for Biofilm inhibition (verdict in words): planktonic (0 h) and biofilm (24 h) stages, 1 mg/mL and MIC level
Method: A single colony of E. coli (ATCC 25922) and S. aureus (ATCC 29213), strains were each inoculated into TSB and incubated for 24 h. The biofilm inhibition assay was carried out by adopting the method described by […] et al.. Two stages; planktonic, T0 and biofilm formation, T24 were investigated against the 24 h prepared bacterial cultures. One hundred microliters of each standardised bacterial culture (OD590 1 × 10^6 cfu/mL) was aliquoted into wells of a sterile flat bottomed 96-well microplate. Plates prepared for 24 h biofilm formation were immediately sealed with an adhesive sealer, placed in the incubator and incubated for 24 h at 37 °C. […] To the plates prepared for 0 h, the samples were added immediately. Wells containing cultures only, as well as acetone and sterile distilled water used to prepare the samples were included as controls. All plates after the addition of samples were sealed and incubated for 24 h to enable the samples to react with the biofilms. The incubated plates were washed with sterile distilled water three to four times after incubation to remove the unattached cells and were placed in the oven at 60 °C for 45 min. To all wells, 100 μL of 1% crystal violet dissolved in distilled water was added and plates were incubated for 15 min at room temperature after which the plates were washed again with sterile distilled water to remove unabsorbed stain. One hundred and twenty-five microliters of 100% ethanol was added to destain the wells. From the wells, 100 μL of the destaining solution was transferred to a new plate and semi-quantitative assessment of biofilm formation was done by measuring absorbance at 590 nm using SoftMax […] software on a microplate reader (SpectraMax M2). The mean absorbance of the samples was determined, and percentage inhibition was obtained using the equation below: percentage inhibiton=mean of culture control-mean of sample/mean of culture controlx100

[5] = system: S. aureus; assay: Metabolic activity inhibition (INT); format: cell-based, Staphylococcus aureus
Method: The ability of the isolated compounds to inhibit the bacterial metabolic activity was tested against E. coli and S. aureus following the method used by Ramage and Lopez-Ribot with slight modification. The organisms were inoculated in a 96-well microplate following the same biofilm assay procedure described above. The final concentration of each compound in the wells was 0.016 mg/mL, 0.031 mg/mL, 0.063 mg/mL, 0.125 mg/mL and 1 mg/mL respectively. After 24 h of incubation with samples, the plates were washed three times with sterile distilled water and 50 μL of 1 mg/mL INT was added to each well and further incubated in the dark for 2 h. After incubation, absorbance was read at 490 nm using a microplate reader and the percentages of reduction of bacterial metabolic activity in the presence of different concentrations of compounds were calculated using the formula:
percentage inhibiton=mean of culture control−mean of sample/mean of culture controlx100

[6] = system: E. coli; assay: Cell adhesion to BSA-coated polystyrene surface; format: cell-based, Escherichia coli; details: 1 mg/mL, polystyrene microplate
Method: (§3) Anti-adhesion activity of isolated compounds was determined using the method of Namasivayam and Vivek with slight modification. To a sterile 96-well flat-bottomed polystyrene microtititre plate, 150 μL of freshly prepared 1% lyophilized powdered globular protein BSA, dissolved in water was added to all wells except for the wells allocated for media only. The plates were incubated for 30 min at 30 °C. Following incubation the wells were washed three times with PBS. To the wells, 50 μL of bacterial cultures equivalent to 1 × 10^6 cfu/mL read at 590 nm, prepared from overnight cultures were added. […] The seeded microtitre plates were incubated for 24 h at 37 °C. Non-adhered cells were washed five times with PBS at room temperature. Adhered cells were stained by the addition of 50 μL of 0.1% crystal violet and further incubation for a further 30 min at room temperature. Afterwards, wells were washed with sterile distilled water to remove excess stain followed by the addition of 10 μL of absolute ethanol to fix the adhered cells. Finally, 50 μL of 0.2% Triton X was added to the wells to lyse the cells and the absorbance was read at 570 nm using a microplate reader. Percentage adherence inhibition was calculated using the formula above.

[7] = system: S. aureus; assay: Cell adhesion to BSA-coated polystyrene surface; format: cell-based, Staphylococcus aureus; details: 1 mg/mL, polystyrene microplate
Method: as §3

Structure (SMILES) | MIC ([1]; 48 h) [µg/mL] | MIC ([1]; 72 h) [µg/mL] | MIC ([1]; 120 h) [µg/mL] | MIC [2] [µg/mL] | MIC [3] [µg/mL] | Biofilm inhibition (verdict in words) [4] | Metabolic activity inhibition (verdict in words) [5] | Metabolic activity inhibition (verdict in words) ([5]; planktonic stage, MIC of 0.063 mg/mL) | Adherence inhibition (verdict in words) [6] | Adherence inhibition (verdict in words) [7] | Biofilm inhibition ([4]; at 24 h)
COc1ccc(C2CC(=O)c3c(OC)cc(OC)cc3O2)cc1 (racemic) [Compound 2, (±)-4′,5,7-trimethoxy flavanone] | 16 (≈ 50.9 µM) | 125 (≈ 398 µM) | > 2500 | 31 (≈ 98.6 µM) | 125 (≈ 398 µM) | good and poor inhibition and good inhibitory activity | good | did not show inhibition | weak | weak | 
COc1ccc(-c2oc3cc(OC)cc(O)c3c(=O)c2OC)cc1 [Compound 3, 5-hydroxy-3,7,4′-trimethoxyflavone] | 31 (≈ 94.4 µM) | 250 (≈ 761 µM) | > 2500 | 250 (≈ 761 µM) | 125 (≈ 381 µM) | good and good inhibitory activity | good |  | weak | weak | higher than 50%
